Source: paper PMC3603284 (Therapeutic drug monitoring, 2013)

Assay: Week 2 plasma trough protease inhibitor concentration
Parameters: species or system human
Conditions: in vivo

association of SLCO1B1 521T→C with week 2 trough concentration	decrease in the mean trough concentration per C allele (human, 2 weeks) [%]	week 2 trough measures below the assay limit of quantification (200 ng/ml) (human, 2 weeks) [%]	SMILES
no significant association	–	–	CC(C)(C)NC(=O)[C@@H]1C[C@@H]2CCCC[C@@H]2CN1C[C@@H](O)[C@H](Cc1ccccc1)NC(=O)[C@H](CC(N)=O)NC(=O)c1ccc2ccccc2n1 [saquinavir]
–	35	–	CC(C)CN(C[C@@H](O)[C@H](Cc1ccccc1)NC(=O)O[C@H]1CCOC1)S(=O)(=O)c1ccc(N)cc1 [amprenavir]
no significant association	–	86	CC(C)c1nc(CN(C)C(=O)N[C@H](C(=O)N[C@@H](Cc2ccccc2)C[C@H](O)[C@H](Cc2ccccc2)NC(=O)OCc2cncs2)C(C)C)cs1 [ritonavir]
